These results are taken from patent publication US9187472B2 (AbbVie Inc., priority 2012, dated 2015).

Assay [1] concerns PC3 cells. As to the kind of experiment: NAMPT Cell Proliferation Assay. Type of assay: cell-based. As to conditions: Homo sapiens, PC-3, 120 h, 5 days incubation, cell viability by Cell Titer Glo. The procedure, abridged:
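Cell Titer Glo viability after 5-day exposure (37° C, 5% CO2); PC3, 500 cells/well, RPMI + 10% heat-inactivated FBS, overnight attachment before dosing. Dose range 10 μM to 1×10^−5 μM, 10-fold steps. IC50 = sigmoidal fit of % inhibition.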
(In general: ATP-based viability assays read luminescence as a measure of living cells.)

Assay [2] has as its target NAMPT (human, recombinant, C-terminally His-tagged) (Homo sapiens, UniProt P43490). As to the kind of experiment: Time-Resolved Fluorescence Resonance Energy Transfer (TR-FRET) Binding Assay of NAMPT. As to conditions: without substrates; 6.8 nM NAMPT, 200 nM probe, 3 hours equilibration. The procedure, abridged: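 Read-out is the time-resolved FRET ratio Em520/Em495 (excitation 337 nm) between a terbium anti-His antibody (1 nM) on the enzyme and an Oregon Green 488-labelled nicotinamide-competitive inhibitor probe (200 nM). Enzyme was 6.8 nM, DMSO 2%, pH 7.5 HEPES buffer; 3 h room-temperature equilibration preceded reading.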

Assay [3] addresses NAMPT (Homo sapiens, UniProt P43490). As to the kind of experiment: TR-FRET Binding Assay of NAMPT with PRPP. As to conditions: with 200 μM PRPP and 2.5 mM ATP; 2 nM NAMPT, 2 nM probe, 16 hours equilibration. The essentials:
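NAMPT 2 nM + probe 2 nM + Tb-anti-His Ab 1 nM; PRPP 200 μM, ATP 2.5 mM, DMSO 2%; 16 h equilibration before TR-FRET read.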
A general note: TR-FRET usually uses a lanthanide donor and a delayed reading to cut background.

NAMPT (human, recombinant, C-terminally His-tagged), sequence (P43490 whole entry): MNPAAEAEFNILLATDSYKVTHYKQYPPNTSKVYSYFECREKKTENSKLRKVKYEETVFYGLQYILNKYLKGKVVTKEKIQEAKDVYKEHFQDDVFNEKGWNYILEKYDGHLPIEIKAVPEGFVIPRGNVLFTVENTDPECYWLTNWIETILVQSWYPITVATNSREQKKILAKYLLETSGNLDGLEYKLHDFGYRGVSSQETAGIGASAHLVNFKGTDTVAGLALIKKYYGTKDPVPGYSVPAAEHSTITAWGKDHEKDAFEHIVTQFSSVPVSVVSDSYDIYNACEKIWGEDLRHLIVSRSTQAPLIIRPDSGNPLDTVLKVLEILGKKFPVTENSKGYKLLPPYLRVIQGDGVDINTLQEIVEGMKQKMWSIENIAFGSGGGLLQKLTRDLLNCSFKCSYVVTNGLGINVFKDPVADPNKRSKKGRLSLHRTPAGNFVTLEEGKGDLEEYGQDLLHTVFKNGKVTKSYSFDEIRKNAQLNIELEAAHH
NAMPT, sequence (P43490 whole entry): as above

For orientation: IC50 means the point on the concentration scale where inhibition reaches its midpoint. For `CC(C)(O)C(=O)N1CC(c2ccc(C(=O)NCc3ccn4ccnc4c3)cc2)C1` [Example 550, 4-[1-(2-hydroxy-2-methylpropanoyl)azetidin-3-yl]-N-(imidazo[1,2-a]pyridin-7-ylmethyl)benzamide], the IC50 was 0.174 µM in assay [1], 0.762 µM in assay [2] and 0.000427 µM in assay [3].

As to `O=C(NCc1ccn2ccnc2c1)c1ccc(C2CN(C(=O)CC3CCOCC3)C2)cc1` [Example 551, N-(imidazo[1,2-a]pyridin-7-ylmethyl)-4-[1-(tetrahydro-2H-pyran-4-ylacetyl)azetidin-3-yl]benzamide], the IC50 in assay [1] stood at 0.0551 µM; in assay [2], 0.713 µM; in assay [3], 0.000392 µM.

Regarding `O=C(NCc1ccn2ccnc2c1)c1ccc(C2CN(C(=O)c3cccs3)C2)cc1` [Example 552, N-(imidazo[1,2-a]pyridin-7-ylmethyl)-4-[1-(thiophen-2-ylcarbonyl)azetidin-3-yl]benzamide], the IC50 in assay [1] was 0.0426 µM; in assay [2], 0.184 µM; in assay [3], 0.000543 µM.

`CC(C)CC(=O)N1CCC(O)(c2ccc(C(=O)NCc3ccn4ccnc4c3)s2)CC1` [Example 553, 5-[4-hydroxy-1-(3-methylbutanoyl)piperidin-4-yl]-N-(imidazo[1,2-a]pyridin-7-ylmethyl)thiophene-2-carboxamide]: the IC50 in assay [1] came out at 0.103 µM; in assay [2], 0.478 µM; in assay [3], 0.000592 µM.

Consider `CC(C)C(=O)N1CCC(O)(c2ccc(C(=O)NCc3ccn4ccnc4c3)s2)CC1` [Example 554, 5-[4-hydroxy-1-(2-methylpropanoyl)piperidin-4-yl]-N-(imidazo[1,2-a]pyridin-7-ylmethyl)thiophene-2-carboxamide], for which the IC50 in assay [1] came to 0.177 µM; in assay [2], 0.451 µM; in assay [3], 0.000837 µM.

On to `CC(C)(C)CC(=O)N1CCC(O)(c2ccc(C(=O)NCc3ccn4ccnc4c3)s2)CC1` [Example 555, 5-[1-(3,3-dimethylbutanoyl)-4-hydroxypiperidin-4-yl]-N-(imidazo[1,2-a]pyridin-7-ylmethyl)thiophene-2-carboxamide], for which the IC50 in assay [1] turned out to be 0.0332 µM; in assay [2], 0.427 µM; in assay [3], 0.000749 µM.

For `O=C(NCc1ccn2ccnc2c1)c1ccc(C2(O)CCN(C(=O)c3ccccc3)CC2)s1` [Example 556, 5-(1-benzoyl-4-hydroxypiperidin-4-yl)-N-(imidazo[1,2-a]pyridin-7-ylmethyl)thiophene-2-carboxamide], the IC50 in assay [1] is 0.00655 µM; in assay [2] it was 0.00543 µM; in assay [3], 0.000407 µM.

`CC(C)S(=O)(=O)N1CC(c2ccc(C(=O)NCc3ccn4ccnc4c3)cc2)C1` [Example 557, N-(imidazo[1,2-a]pyridin-7-ylmethyl)-4-[1-(propan-2-ylsulfonyl)azetidin-3-yl]benzamide]: the figures for the half-inhibitory concentration (IC50) in assay [1], in assay [2] and in assay [3] were 0.0374 µM, 0.167 µM and 0.000359 µM, respectively.

`CC(C)C(=O)N1CC(Oc2ccc(C(=O)NCc3ccn4ccnc4c3)cc2)C1` [Example 558, N-(imidazo[1,2-a]pyridin-7-ylmethyl)-4-{[1-(2-methylpropanoyl)azetidin-3-yl]oxy}benzamide]: the IC50 in assay [1] worked out at 1.17 µM; in assay [2] it was 1.41 µM; in assay [3] it was 0.000352 µM.

On to `CC[C@H](C)C(=O)N1CC(Oc2ccc(C(=O)NCc3ccn4ccnc4c3)cc2)C1` [Example 559, N-(imidazo[1,2-a]pyridin-7-ylmethyl)-4-({1-[(2S)-2-methylbutanoyl]azetidin-3-yl}oxy)benzamide], for which the figures for the IC50 in assay [1], in assay [2] and in assay [3] were 0.0943 µM, 0.681 µM and 0.000223 µM, respectively.

For `O=C(NCc1ccn2ccnc2c1)c1ccc(OC2CN(C(=O)CC3CC3)C2)cc1` [Example 560, 4-{[1-(cyclopropylacetyl)azetidin-3-yl]oxy}-N-(imidazo[1,2-a]pyridin-7-ylmethyl)benzamide], the IC50 was determined as 0.844 µM in assay [1], 0.969 µM in assay [2] and 0.000312 µM in assay [3].

With `O=C(NCc1ccn2ccnc2c1)c1ccc(OC2CN(C(=O)c3ccccc3)C2)cc1` [Example 561, 4-[(1-benzoylazetidin-3-yl)oxy]-N-(imidazo[1,2-a]pyridin-7-ylmethyl)benzamide], the IC50 in assay [1] amounted to 0.24 µM; in assay [2] it was 0.869 µM; in assay [3] it was 0.000335 µM.

As to `O=C(NCc1ccn2ccnc2c1)c1ccc(C2CCN(C(=O)c3ccc(F)cc3)C2)cc1` (stereo not drawn) [Example 562, 4-[1-(4-fluorobenzoyl)pyrrolidin-3-yl]-N-(imidazo[1,2-a]pyridin-7-ylmethyl)benzamide], the IC50 in assay [1] was found to be 0.0709 µM; in assay [2] it was 0.218 µM; in assay [3] it was 0.000607 µM.

`CC(C)(C)OC(=O)N1CCC(c2ccc(C(=O)NCc3ccn4ncnc4c3)cc2)CC1` [Example 563, tert-butyl 4-{4-[([1,2,4]triazolo[1,5-a]pyridin-7-ylmethyl)carbamoyl]phenyl}piperidine-1-carboxylate]: the IC50 in assay [1] was 5.14 µM; in assay [2], 0.322 µM; in assay [3], 0.00419 µM.

Regarding `O=C(CC1CCCC1)Nc1ccc(NC(=O)NCc2ccn3ncnc3c2)cc1` [Example 564, 2-cyclopentyl-N-(4-{[([1,2,4]triazolo[1,5-a]pyridin-7-ylmethyl)carbamoyl]amino}phenyl)acetamide], the values for the IC50 in assay [1], in assay [2] and in assay [3] were 0.211 µM, 0.0238 µM and 0.00343 µM, respectively.

Turning to `CC(C)(C)OC(=O)N1CCC(c2ccc(NC(=O)NCc3ccn4ncnc4c3)cc2)CC1` [Example 565, tert-butyl 4-(4-{[([1,2,4]triazolo[1,5-a]pyridin-7-ylmethyl)carbamoyl]amino}phenyl)piperidine-1-carboxylate], the IC50 came out at 0.891 µM in assay [1], 0.215 µM in assay [2] and 0.00538 µM in assay [3].

Turning to `O=C(NCc1ccn2ccnc2c1)c1ccc(C(=O)N2CCCCC2)cc1` [Example 566, N-(imidazo[1,2-a]pyridin-7-ylmethyl)-4-(piperidin-1-ylcarbonyl)benzamide], the IC50 in assay [1] was above 10 µM; in assay [2], above 10 µM; in assay [3], 0.216 µM.

As to `CCS(=O)(=O)N1CC(c2ccc(C(=O)NCc3ccn4ccnc4c3)cc2)C1` [Example 567, 4-[1-(ethylsulfonyl)azetidin-3-yl]-N-(imidazo[1,2-a]pyridin-7-ylmethyl)benzamide], the IC50 in assay [1] worked out at 0.237 µM; in assay [2], 0.403 µM; in assay [3], 0.00111 µM.

With `O=C(NCc1ccn2ccnc2c1)c1ccc(C2CN(S(=O)(=O)C3CC3)C2)cc1` [Example 568, 4-[1-(cyclopropylsulfonyl)azetidin-3-yl]-N-(imidazo[1,2-a]pyridin-7-ylmethyl)benzamide], the IC50 in assay [1] was 0.18 µM; in assay [2] it was 0.375 µM; in assay [3], 0.000723 µM.

With `O=C(NCc1ccn2ccnc2c1)c1ccc(C2CN(S(=O)(=O)c3ccccc3)C2)cc1` [Example 569, N-(imidazo[1,2-a]pyridin-7-ylmethyl)-4-[1-(phenylsulfonyl)azetidin-3-yl]benzamide], the IC50 turned out to be 0.226 µM in assay [1], 0.217 µM in assay [2] and 0.000669 µM in assay [3].
